In ChEMBL document CHEMBL1149398, “Pyrrolizidine esters and amides as 5-HT4 receptor agonists and antagonists” (J Med Chem, 2006):
Calls of active or inactive are those of the source. The calls are words filed in the database; no cut-off is given here.

Columns and labels:
[1] = biological target: T1, 5-hydroxytryptamine receptor 4 (Rattus norvegicus, UniProt Q62758); assay: Antagonism at 5HT4 receptor in rat tunica muscularis mucosa; type: functional, tissue-based; settings: read-out: pA2 (converted)
[2] = biological target: T1, 5-hydroxytryptamine receptor 4; assay: Agonism at 5HT4 receptor in rat tunica muscularis mucosa; type: functional
[3] = biological target: T2, Serotonin 3 (5-HT3) receptor (Rattus norvegicus, UniProt P35563+Q9JJ16); assay: Displacement of [3H]GR65630 from 5HT3 receptor in brain cortex from Wistar rat; type: tissue-based
T2 sequence (P35563 whole entry): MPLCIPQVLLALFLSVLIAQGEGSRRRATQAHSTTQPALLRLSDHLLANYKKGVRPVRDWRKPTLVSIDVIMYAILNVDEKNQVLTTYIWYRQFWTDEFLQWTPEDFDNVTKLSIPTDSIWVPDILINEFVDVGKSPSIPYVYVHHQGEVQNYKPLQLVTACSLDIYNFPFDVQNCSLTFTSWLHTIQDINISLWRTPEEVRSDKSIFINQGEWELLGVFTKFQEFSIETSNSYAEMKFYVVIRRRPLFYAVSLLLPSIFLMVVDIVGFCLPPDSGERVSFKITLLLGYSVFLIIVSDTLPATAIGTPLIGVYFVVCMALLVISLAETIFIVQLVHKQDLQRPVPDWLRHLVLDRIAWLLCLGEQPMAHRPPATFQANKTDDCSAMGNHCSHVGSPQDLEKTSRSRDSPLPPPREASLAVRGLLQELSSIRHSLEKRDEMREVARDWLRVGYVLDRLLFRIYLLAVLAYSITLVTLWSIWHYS
T2 sequence (Q9JJ16 whole entry): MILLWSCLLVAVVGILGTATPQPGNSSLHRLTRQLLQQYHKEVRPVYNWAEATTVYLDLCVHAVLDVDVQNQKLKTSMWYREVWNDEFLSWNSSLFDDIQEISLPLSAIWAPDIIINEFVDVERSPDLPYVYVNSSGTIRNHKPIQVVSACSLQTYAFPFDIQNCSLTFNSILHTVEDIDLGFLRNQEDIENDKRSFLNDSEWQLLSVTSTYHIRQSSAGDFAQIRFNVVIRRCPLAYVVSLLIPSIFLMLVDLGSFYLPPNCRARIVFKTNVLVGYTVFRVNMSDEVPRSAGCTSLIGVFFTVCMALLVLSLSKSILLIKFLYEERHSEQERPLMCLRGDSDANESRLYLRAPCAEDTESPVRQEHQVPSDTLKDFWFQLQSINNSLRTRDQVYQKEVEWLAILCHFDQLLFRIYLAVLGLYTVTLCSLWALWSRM

[4] = biological target: T3, Serotonin 3 receptor (5HT3) (Mus musculus) (UniProt Q9JHJ5+P23979); assay: Antagonism at 5HT3 receptor in mice by von Bezold-Jarisch reflex inhibition at 10 mg/kg, ip; type: functional, organism-based; set-up: dose 10 mg/kg
[5] = biological target: D(2) dopamine receptor (Homo sapiens, UniProt P14416); assay: Binding affinity to dopamine receptor D2
[6] = biological target: T3, Serotonin 3 receptor (5HT3) (Mus musculus); assay: Antagonism at 5HT3 receptor in mice by von Bezold-Jarisch reflex inhibition at 3 mg/kg, ip; type: functional, organism-based; set-up: dose 3 mg/kg
[7] = biological target: T4, 5-hydroxytryptamine receptor 4 (Cavia porcellus, UniProt O70528); assay: Displacement of [3H]GR-113808 from 5HT4 receptor in guinea pig striatum
[8] = biological target: 5-hydroxytryptamine receptor 4 (Rattus norvegicus) (UniProt Q62758); assay: Antagonism at 5HT4 receptor in rat tunica muscularis mucosa upto 100-1000 nM; type: functional, tissue-based
[9] = test system: Canis familiaris; assay: Contractile response of the antrum in iv dosed fasted dog; type: functional; settings: Canis lupus familiaris
[10] = test system: Canis familiaris; assay: Effect on solid gastric emptying in iv dosed dog; type: functional
[11] = test system: Salmonella typhi; assay: Mutagenic activity in a GLP study using Salmonella Typhimurium TA100 in presence of S9 fraction at 10-5000 ug/plate; type: toxicity, organism-based; settings: salmonella enterica subsp. enterica […]
[12] = test system: Salmonella typhi; assay: Mutagenic activity in a GLP study using Salmonella Typhimurium TA1538 in presence of S9 fraction at 10-5000 ug/plate; type: toxicity, organism-based; settings: salmonella enterica subsp. enterica […]
[13] = test system: Salmonella typhi; assay: Mutagenic activity in a GLP study using Salmonella Typhimurium TA97 in presence of S9 fraction at 10-5000 ug/plate; type: toxicity, organism-based; settings: salmonella enterica subsp. enterica […]
[14] = test system: Salmonella typhi; assay: Mutagenic activity in a GLP study using Salmonella Typhimurium TA98 in presence of S9 fraction at 10-5000 ug/plate; type: toxicity, organism-based; settings: salmonella enterica subsp. enterica […]
[15] = test system: Salmonella typhi; assay: Mutagenic activity in a GLP study using Salmonella Typhimurium TA1535 in presence of S9 fraction at 10-5000 ug/plate; type: toxicity, organism-based; settings: salmonella enterica subsp. enterica […]
[16] = biological target: T4, 5-hydroxytryptamine receptor 4; assay: Inhibition of [3H]GR-113808 binding to 5HT4 receptor in guinea pig striatum at 500 nM; type: tissue-based
[17] = biological target: T3, Serotonin 3 receptor (5HT3) (Mus musculus); assay: Antagonism at 5HT3 receptor in mice by von Bezold-Jarisch reflex inhibition at 1 mg/kg, ip; type: functional, organism-based; set-up: dose 1 mg/kg
[18] = biological target: T3, Serotonin 3 receptor (5HT3) (Mus musculus); assay: Antagonism at 5HT3 receptor in mice by von Bezold-Jarisch reflex inhibition at 1000 mg/kg, ip; type: functional, organism-based; set-up: dose 1000 mg/kg
[19] = biological target: D(1A) dopamine receptor (Homo sapiens, UniProt P21728); assay: Binding affinity to dopamine receptor D1
[20] = biological target: Beta-1 adrenergic receptor (Homo sapiens, UniProt P08588); assay: Binding affinity to adrenergic beta-1 receptor
[21] = Binding affinity to 5HT1 receptor
[22] = biological target: Beta-2 adrenergic receptor (Homo sapiens, UniProt P07550); assay: Binding affinity to adrenergic beta-2 receptor
[23] = biological target: 5-hydroxytryptamine receptor 4 (Rattus norvegicus) (UniProt Q62758); assay: Antagonism at 5HT4 receptor in rat tunica muscularis mucosa at 0.1 uM; type: functional, tissue-based
[24] = biological target: T3, Serotonin 3 receptor (5HT3) (Mus musculus); assay: Antagonism at 5HT3 receptor in mice by von Bezold-Jarisch reflex inhibition at 0.3 mg/kg, ip; type: functional, organism-based; set-up: dose 0.3 mg/kg
[25] = Canis lupus familiaris, Stomach

D(2) dopamine receptor, sequence (P14416 whole entry): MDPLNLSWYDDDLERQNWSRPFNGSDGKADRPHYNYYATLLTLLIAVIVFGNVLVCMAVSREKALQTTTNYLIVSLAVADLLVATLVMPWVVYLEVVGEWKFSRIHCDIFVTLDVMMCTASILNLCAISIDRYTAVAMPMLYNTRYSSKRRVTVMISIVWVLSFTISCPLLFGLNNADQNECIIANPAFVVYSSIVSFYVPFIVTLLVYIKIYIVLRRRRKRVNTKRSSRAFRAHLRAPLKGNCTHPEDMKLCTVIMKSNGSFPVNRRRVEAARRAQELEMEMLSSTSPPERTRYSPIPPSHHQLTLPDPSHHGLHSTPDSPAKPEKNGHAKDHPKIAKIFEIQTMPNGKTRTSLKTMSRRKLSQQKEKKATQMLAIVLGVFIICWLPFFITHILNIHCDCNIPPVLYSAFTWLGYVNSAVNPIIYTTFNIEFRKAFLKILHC
T1 sequence (Q62758 whole entry): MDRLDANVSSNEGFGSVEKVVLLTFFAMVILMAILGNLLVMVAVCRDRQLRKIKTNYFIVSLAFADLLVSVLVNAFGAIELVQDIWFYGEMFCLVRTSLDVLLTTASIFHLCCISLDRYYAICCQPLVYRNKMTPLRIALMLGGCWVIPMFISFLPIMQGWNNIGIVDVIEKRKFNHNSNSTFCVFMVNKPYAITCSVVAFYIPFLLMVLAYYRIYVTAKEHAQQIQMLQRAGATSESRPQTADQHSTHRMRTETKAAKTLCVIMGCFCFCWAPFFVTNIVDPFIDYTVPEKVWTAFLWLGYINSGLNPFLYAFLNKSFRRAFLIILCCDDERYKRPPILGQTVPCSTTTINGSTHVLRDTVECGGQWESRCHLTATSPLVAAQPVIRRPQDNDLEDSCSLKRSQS
5-hydroxytryptamine receptor 4 (Rattus norvegicus), sequence (Q62758 whole entry): as above
T3 sequence (P23979 whole entry, looked up): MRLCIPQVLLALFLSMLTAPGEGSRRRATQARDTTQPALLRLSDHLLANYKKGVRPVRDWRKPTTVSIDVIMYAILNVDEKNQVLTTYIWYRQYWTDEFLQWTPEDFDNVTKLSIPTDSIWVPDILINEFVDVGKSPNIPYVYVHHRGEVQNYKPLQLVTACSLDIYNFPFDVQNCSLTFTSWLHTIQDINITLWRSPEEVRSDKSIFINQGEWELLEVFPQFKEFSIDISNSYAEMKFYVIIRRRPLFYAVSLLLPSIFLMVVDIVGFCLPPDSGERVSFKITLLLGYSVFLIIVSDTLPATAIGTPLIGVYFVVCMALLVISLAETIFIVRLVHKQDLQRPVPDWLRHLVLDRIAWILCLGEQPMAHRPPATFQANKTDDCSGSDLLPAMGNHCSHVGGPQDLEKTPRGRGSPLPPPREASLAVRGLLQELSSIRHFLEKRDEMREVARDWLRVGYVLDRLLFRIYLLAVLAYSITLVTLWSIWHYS
T3 sequence (Q9JHJ5 whole entry, looked up): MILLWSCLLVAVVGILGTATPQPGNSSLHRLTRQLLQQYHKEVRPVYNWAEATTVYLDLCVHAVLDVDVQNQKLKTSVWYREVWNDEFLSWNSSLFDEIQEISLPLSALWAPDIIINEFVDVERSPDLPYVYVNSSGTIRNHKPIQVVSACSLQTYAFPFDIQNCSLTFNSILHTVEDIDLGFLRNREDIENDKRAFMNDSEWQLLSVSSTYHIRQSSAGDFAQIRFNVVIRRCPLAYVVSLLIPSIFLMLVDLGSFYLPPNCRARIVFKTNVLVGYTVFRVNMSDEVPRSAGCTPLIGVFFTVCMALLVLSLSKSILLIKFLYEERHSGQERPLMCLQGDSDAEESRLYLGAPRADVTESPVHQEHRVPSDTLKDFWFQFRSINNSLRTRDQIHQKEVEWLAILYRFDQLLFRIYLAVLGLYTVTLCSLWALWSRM
T4 sequence (O70528 whole entry): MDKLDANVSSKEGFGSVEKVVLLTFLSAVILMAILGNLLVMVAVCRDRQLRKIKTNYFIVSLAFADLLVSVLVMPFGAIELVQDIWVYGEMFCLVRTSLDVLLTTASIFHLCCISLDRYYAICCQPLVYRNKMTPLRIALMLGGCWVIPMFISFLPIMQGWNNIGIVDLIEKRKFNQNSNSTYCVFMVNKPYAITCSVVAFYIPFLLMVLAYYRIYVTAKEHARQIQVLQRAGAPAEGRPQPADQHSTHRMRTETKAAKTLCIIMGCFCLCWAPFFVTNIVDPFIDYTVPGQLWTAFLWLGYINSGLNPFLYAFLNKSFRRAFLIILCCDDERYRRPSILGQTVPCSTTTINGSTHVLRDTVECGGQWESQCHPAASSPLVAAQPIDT
Beta-1 adrenergic receptor, sequence (P08588 whole entry): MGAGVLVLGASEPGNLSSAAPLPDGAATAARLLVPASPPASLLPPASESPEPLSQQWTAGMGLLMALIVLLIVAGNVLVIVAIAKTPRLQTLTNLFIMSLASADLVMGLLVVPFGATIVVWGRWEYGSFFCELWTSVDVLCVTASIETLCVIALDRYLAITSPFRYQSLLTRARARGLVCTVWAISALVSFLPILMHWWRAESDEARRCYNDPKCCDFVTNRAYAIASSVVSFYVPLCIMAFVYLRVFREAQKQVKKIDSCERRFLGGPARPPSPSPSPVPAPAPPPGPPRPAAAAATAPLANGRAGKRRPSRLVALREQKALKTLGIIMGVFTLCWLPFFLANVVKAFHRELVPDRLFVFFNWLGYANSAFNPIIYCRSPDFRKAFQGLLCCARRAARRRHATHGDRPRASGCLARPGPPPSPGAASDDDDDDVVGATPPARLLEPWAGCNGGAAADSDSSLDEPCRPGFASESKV
Beta-2 adrenergic receptor, sequence (P07550 whole entry): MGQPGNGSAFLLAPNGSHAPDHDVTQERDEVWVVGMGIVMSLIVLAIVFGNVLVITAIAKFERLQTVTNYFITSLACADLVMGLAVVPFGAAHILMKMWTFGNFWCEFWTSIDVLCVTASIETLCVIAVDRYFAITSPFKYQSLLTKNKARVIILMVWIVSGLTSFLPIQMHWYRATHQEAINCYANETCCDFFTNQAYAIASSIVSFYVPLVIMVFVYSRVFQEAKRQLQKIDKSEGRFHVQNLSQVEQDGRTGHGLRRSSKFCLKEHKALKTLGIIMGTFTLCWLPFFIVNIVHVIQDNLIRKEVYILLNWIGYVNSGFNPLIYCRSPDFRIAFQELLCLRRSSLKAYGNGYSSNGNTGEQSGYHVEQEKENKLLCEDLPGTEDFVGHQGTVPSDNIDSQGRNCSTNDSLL
D(1A) dopamine receptor, sequence (P21728 whole entry): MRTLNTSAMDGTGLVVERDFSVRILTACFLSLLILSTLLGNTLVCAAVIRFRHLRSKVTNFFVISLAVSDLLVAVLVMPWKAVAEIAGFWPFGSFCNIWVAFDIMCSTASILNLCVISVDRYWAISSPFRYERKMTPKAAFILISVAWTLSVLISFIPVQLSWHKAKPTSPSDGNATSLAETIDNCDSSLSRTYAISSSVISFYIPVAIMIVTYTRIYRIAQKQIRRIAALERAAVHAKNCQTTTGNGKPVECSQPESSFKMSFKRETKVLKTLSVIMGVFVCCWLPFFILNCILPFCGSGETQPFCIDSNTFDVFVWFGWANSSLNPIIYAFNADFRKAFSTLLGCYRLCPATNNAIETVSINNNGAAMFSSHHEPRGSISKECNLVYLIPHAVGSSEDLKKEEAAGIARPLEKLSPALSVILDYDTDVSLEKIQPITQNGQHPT

Compound `O=C(NC[C@@H]1CCN2CCC[C@@H]12)c1cccn2ccnc12` has a Kb [1] of 178 nM.

Work on `CCOc1cc(N)c(Cl)cc1C(=O)NC[C@@H]1CCN2CCC[C@@H]12` yielded an EC50 [2] of 195 nM, a Ki [3] of 25 nM and an inhibition [4] of 89%. It also gave an IC50 [5] of 5300 nM and an inhibition [6] of 48%.

`O=C(OC[C@@H]1CCN2CCC[C@@H]12)c1c[nH]c2ccc(F)cc12` gave a Ki [3] of 10 nM, a Kb [1] of 3.16 nM and a Ki [7] of 0.7 nM.

In the case of `Cn1cc(C(=O)NC[C@@H]2CCN3CCC[C@@H]23)c2ccccc21`, the pA2 [8] is reported as “inactive”.

For `COc1cc(N)c(Cl)cc1C(=O)N[C@H]1CCN2CCC[C@@H]1C2`, the EC50 [2] was 98 nM, the ED50 [9] was 0.015 mg/kg and the ED50 ([10]; Canis lupus familiaris; Stomach) was “Active”.

In the case of `O=C(OC[C@@H]1CCN2CCC[C@@H]12)c1cc(Cl)cn2ccnc12`, the Kb [1] is reported as 178 nM.

`COc1cc(N)c(Cl)cc1C(=O)OC[C@@H]1CCN2CCC[C@@H]12` showed an EC50 [2] of 1.5 nM, a Ki [3] of 51 nM and a Ki [7] of 0.183 nM. It also gave an inhibition [4] of 0% and an IC50 [5] greater than 10000 nM.

For `COc1cc(N)c(Cl)cc1C(=O)NC[C@H]1CCN2CCC[C@H]12`, the EC50 [2] was 323 nM, the ED50 [9] was 0.45 mg/kg and the Activity [11] was “Not Active”. The Activity [12] was “Not Active”, the Activity [13] was “Not Active” and the Activity [14] was “Not Active”. The inhibition [4] was 87%, the Activity [15] was “Not Active” and the ED50 [10, 25] was 1 mg/kg. The IC50 [5] was 3900 nM, the inhibition [6] was 79% and the inhibition [16] was 18%. It also gave an inhibition [17] of 20%.

Work on `CC1(C)C(=O)N(C(=O)NC[C@@H]2CCN3CCC[C@@H]23)c2ccccc21` yielded a Kb [1] of 100 nM.

`COc1cc(N)c(Cl)cc1C(=O)NC[C@@H]1CC[N@@+]2(C)CCC[C@@H]12` showed an EC50 [2] of 129 nM, an inhibition [18] of 16% and a Ki [7] of 0.35 nM.

In the case of `CCc1cc(C(=O)NC[C@@H]2CCN3CCC[C@@H]23)c2ccccn12` (relative stereo), the pA2 [8] is reported as “inactive”.

`Cc1cnc2c(C(=O)NC[C@@H]3CCN4CCC[C@@H]34)cc(Cl)cn12` showed a Kb [1] of 81.3 nM.

`COc1ccc2[nH]cc(C(=O)OC[C@@H]3CCN4CCC[C@@H]34)c2c1` gave a Kb [1] of 70.8 nM.

`COc1cc(N)c(Cl)cc1C(=O)NC1CCN(CCCOc2ccc(F)cc2)CC1OC` (stereo not drawn) [CISAPRIDE] showed an IC50 [19] of 1700 nM, an ED50 [9] of 0.056 mg/kg and an IC50 [20] greater than 10000 nM. It also gave an IC50 [21] greater than 1000 nM, an ED50 [10, 25] of 0.03 mg/kg and an IC50 [22] greater than 10000 nM.

With `Cn1c(C(=O)OC[C@@H]2CCN3CCC[C@@H]23)cc2ccccc21` the pA2 [23] was “inactive”.

With `CC(C)n1c(=O)n(C(=O)NC[C@@H]2CCN3CCC[C@@H]23)c2ccccc21` (relative stereo) the inhibition [24] was 0%, the EC50 [2] was 374 nM and the Ki [3] was 20.2 nM. For the same compound, the Ki [7] was 7 nM, the inhibition [4] was 87% and the inhibition [17] was 62%.

In the case of `CCc1nc(C(=O)NC[C@@H]2CCN3CCC[C@@H]23)c2ccccn12` (relative stereo), the Kb [1] is reported as 275 nM.
